According to ChEMBL document CHEMBL5108078, “Design and Synthesis of Phenyl Sulfide-Based Cationic Amphiphiles as Membrane-Targeting Antimicrobial Agents against Gram-Positive Pathogens” (J Med Chem, 2022):
In brackets after ≈: the same amount, converted by molar mass.

Columns and labels:
[1] = test system: Staphylococcus aureus; experiment: Antibacterial activity against methicillin resistant Staphylococcus aureus N315 assessed as inhibition of bacterial growth incubated for 24 hrs by microbroth dilution method; type: functional
[2] = test system: Staphylococcus aureus; experiment: Antibacterial activity against methicillin resistant Staphylococcus aureus NCTC10442 assessed as inhibition of bacterial growth incubated for 24 hrs by microbroth dilution method; type: functional
[3] = test system: Staphylococcus aureus; experiment: Antibacterial activity against Staphylococcus aureus ATCC 29213 assessed as inhibition of bacterial growth incubated for 24 hrs by microbroth dilution method; type: functional
[4] = Hemolytic activity in rabbit RBC incubated for 1 hr by microplate reader analysis; type: toxicity, cell-based, Oryctolagus cuniculus, Erythrocyte; settings: rabbit red blood cells (erythrocytes)
[5] = test system: Staphylococcus epidermidis; experiment: Antibacterial activity against Staphylococcus epidermidis CMCC26069 assessed as inhibition of bacterial growth incubated for 24 hrs by microbroth dilution method; type: functional
[6] = test system: Staphylococcus aureus; experiment: Antibacterial activity against Staphylococcus aureus ATCC 15981 assessed as inhibition of bacterial growth incubated for 24 hrs by microbroth dilution method; type: functional
[7] = test system: Enterococcus faecalis; experiment: Antibacterial activity against Enterococcus faecalis ATCC 29212 assessed as inhibition of bacterial growth incubated for 24 hrs by microbroth dilution method; type: functional
[8] = test system: Staphylococcus epidermidis; experiment: Antibacterial activity against Staphylococcus epidermidis ATCC 12228 assessed as inhibition of bacterial growth incubated for 24 hrs by microbroth dilution method; type: functional
[9] = test system: Bacillus subtilis; experiment: Antibacterial activity against Bacillus subtilis CMCC63501 assessed as inhibition of bacterial growth incubated for 24 hrs by microbroth dilution method; type: functional

| Structure (SMILES) | MIC [1] [µg/mL] | MIC [2] [µg/mL] | MIC [3] [µg/mL] | HC50 at 1 h [4] [µg/mL] | MIC [5] [µg/mL] | MIC [6] [µg/mL] | MIC [7] [µg/mL] | MIC [8] [µg/mL] | MIC [9] [µg/mL] |
| --- | --- | --- | --- | --- | --- | --- | --- | --- | --- |
| CCCCCCNCCCCOc1ccc(C(C)(C)CC(C)(C)C)cc1Sc1cc(C(C)(C)CC(C)(C)C)ccc1OCCCCNCCCCCC | > 50 | > 50 | > 50 | > 200 | – | – | – | – | – |
| COC(=O)[C@H](CCCNC(=N)N)NC(=O)[C@H](CCCNC(=N)N)NC(=O)COc1c(Sc2cc(C)cc(C(C)(C)C)c2OCC(=O)N[C@@H](CCCNC(=N)N)C(=O)N[C@@H](CCCNC(=N)N)C(=O)OC)cc(C)cc1C(C)(C)C | 1.56 (≈ 1.38 µM) | 1.56 (≈ 1.38 µM) | 1.56 (≈ 1.38 µM) | > 200 | 0.78 (≈ 0.692 µM) | 1.56 (≈ 1.38 µM) | 25 (≈ 22.2 µM) | 0.78 (≈ 0.692 µM) | 0.78 (≈ 0.692 µM) |
| COC(=O)[C@H](CCCNC(=N)N)NC(=O)COc1ccc(C(C)(C)CC(C)(C)C)cc1Sc1cc(C(C)(C)CC(C)(C)C)ccc1O | 3.12 (≈ 4.66 µM) | 1.56 (≈ 2.33 µM) | 12.5 (≈ 18.6 µM) | 130 | – | – | – | – | – |
| CC(C)(C)CC(C)(C)c1ccc(O)c(Sc2cc(C(C)(C)CC(C)(C)C)ccc2O)c1 | > 50 | > 50 | > 50 | > 200 | – | – | – | – | – |
| CN(C)CCCCOc1ccc(C(C)(C)CC(C)(C)C)cc1Sc1cc(C(C)(C)CC(C)(C)C)ccc1OCCCCN(C)C | 1.56 (≈ 2.43 µM) | 1.56 (≈ 2.43 µM) | 1.56 (≈ 2.43 µM) | 23.2 | – | – | – | – | – |
| CCOC(=O)COc1ccc(C(C)(C)CC(C)(C)C)cc1Sc1cc(C(C)(C)CC(C)(C)C)ccc1OCC(=O)OCC | > 50 | > 50 | > 50 | > 200 | – | – | – | – | – |
| CC(C)(C)CC(C)(C)c1ccc(OCCCCN2CCSCC2)c(Sc2cc(C(C)(C)CC(C)(C)C)ccc2OCCCCN2CCSCC2)c1 | > 50 | > 50 | > 50 | > 200 | – | – | – | – | – |
